Format in all cases: ADME, organism-based, Mesocricetus auratus
Details in all cases: in vivo

Series [1] is described as follows: Tmax in golden hamster at 50 mg/kg, po.
Series [2] can be described thus: Cmax in golden hamster at 50 mg/kg, po. Also on record: dose 50 mg/kg, route oral.
A short description of series [3]: AUC (0 to 24 hrs) in golden hamster at 50 mg/kg, po. Also on record: dose 50 mg/kg, time < 24 hr, route oral.

What is called Tmax is the time at which the peak concentration occurs. The term Cmax denotes the highest concentration seen after dosing. By AUC(0-t) is commonly meant exposure summed from dosing to a finite time, without extrapolation to infinity. A lower AUC(0-t) goes with less exposure.

As for `O=C(Nc1cc(-c2ccccn2)n[nH]1)N1CCN(c2ccc(F)cc2)CC1`, the Tmax in series [1] stood at 1.33 h. In series [2], this molecule yielded a Cmax of 5680 ng/mL. For the same molecule, in series [3], the AUC(0-t) at 24 h was found to be 25400 ng·h/mL.

Source of the values: ChEMBL document CHEMBL3745629, “Novel Amino-pyrazole Ureas with Potent In Vitro and In Vivo Antileishmanial Activity” (J Med Chem, 2015).
